Measurements: patent US20260226493A1, “HERBICIDE RESISTANT PLANTS” (SYNGENTA CROP PROTECTION AG, priority 2023, published 2026)

Experiments:
Type in all cases: biochemical
Ostreococcus tauri BioDA = experiment: BioDA enzyme activity with DMSO or herbicide in vitro; conditions: Ostreococcus tauri BioDAΔMTP
From the text: (§1) A pet-24 plasmid containing a DNA sequence encoding each identified variant mutant of BIO3-BIO1 derived from Arabidopsis thaliana from example 5 above, as shown in Table 13 below and as shown in full in SEQ ID NOs: 15 to 155, codon-optimised for expression in E. coli, with an N-terminal 6×His-tag and thrombin cleavage site and under control of a T7 promoter, and was synthesised by Twist Bioscience, in a similar manner to SEQ ID NO:311. These plasmids were then expressed in E. coli BL21 (DE3) bioA with 50 μg/mL kanamycin and 25 μg/mL chloramphenicol selection. Overnight cultures grown at 37° C. were used to inoculate 8×500 mL AIM in shake flasks at a ratio of 1:100. Cultures were grown at 37° C., 200 rpm for 3.5 hours and then overnight at 20° C. Cells were harvested by centrifugation for 30 minutes at 10 000 g. Cells were stored at −80° C. until extraction. 30 g of cell pellet from was thawed in 120 mL of IMAC buffer A (20 mM HEPES pH7.5, 25 mM imidazole, 500 mM sodium chloride, 0.15 mM pyridoxal phosphate, 0.5 mM TCEP, 1× complete Protease Inhibitor Tablet (Roche)). The resuspension was passed through a cell disrupter at 18 000 PSI and centrifuged at 50 000 g for 25 minutes at 4° C. The His-tagged BIO3-BIO1 protein was purified from the extract supernatant on an AKTA avant chromatography system (Cytiva) using a HisTrap FF column and eluted in IMAC buffer B ((20 mM HEPES pH7.5, 500 mM imidazole, 500 mM sodium chloride, 0.15 mM pyridoxal phosphate, 0.5 mM TCEP) followed by SEC using a HiLoad 26/60 Superdex200 column in SEC buffer (25 mM HEPES pH7.5, 150 mM sodium chloride, 0.15 mM pyridoxal phosphate, 0.5 mM TCEP). Protein concentration was measured and calculated using the absorbance at 280 nm. Extracts were diluted 1 in 4 and 10 uL was analysed by SDS PAGE.
(§2) To measure BIO3-BIO1 mutant enzyme activity in the presence of herbicide, herbicides were incubated with 20 μL of enzyme mix (100 mM EPPS pH 8.6, 0.1 mM pyridoxal phosphate, 0.1 mg/mL BSA, 50 nM BIO3-BIO1 enzyme) for 10 minutes at 20° C. in a well of a 96-well half-area black plate, followed by the addition of 20 μL of substrate mix (final concentration of 100 mM EPPS pH 8.6, 0.1 mM pyridoxal phosphate, 0.1 mg/mL BSA, 100 μM spermidine, 20 μM KAPA, 100 mM NaCO3) and further incubation for 75 minutes at 20° C. The reaction was terminated by the addition of 50 μL of derivatisation mix (final concentration of 250 mM borate NaOH pH 9.4, 3.6 mM o-phthalaldehyde, 7 mM β-mercaptoethanol, 17% (v/v) ethanol, 3.6% (v/v) methanol). The fluorescent product produced by the reaction of DAPA with o-phthalaldehyde and 7 mM β-mercaptoethanol was measured at 470 nm after excitation at 410 nm. The percentage inhibition was calculated as the activity in the presence of one of three concentrations of each herbicide compound A to M (note that the compounds labelled as A to M are identified hereinabove in the relevant section of the description) as a percentage of the activity in DMSO (Table 12 and 13). The percentage activity versus WT was also calculated and is shown in Table 13 and 14 (NT indicates mutation not tested in table 13, note that these mutations are tested at different compound concentrations for compounds L, M and C, and the results are shown in table 14).
(§3) The activity of various wild-type BioDA and variant enzymes was also tested when treated with DMSO or herbicide in vitro.
(§4) Protein of Schizosaccharomyces japonicus BioDA (SEQ ID NO:13), Nannochloropsis gaditana BioDA (SEQ ID NO:3), Selaginella moellendorffii BioDA (SEQ ID NO:319), Quercus robur BioDA (SEQ ID NOA11), Ostreococcus tauri BioDA (SEQ ID NO:9), and the variants of Ostreococcus tauri BioDA A374D, F332A and P407A (SEQ ID Nos:321-323) was prepared using the method in Example 6. BioDA enzyme activity in the presence of herbicide or DMSO in vitro for each of the proteins was assayed according to the enzyme assay method above. The results are shown in Table 26 provided below in the “TABLES” section.

[1] = test system: Nannochloropsis gaditana BioDA; experiment: as above
From the text: as §1, §2, §3, §4

[2] = test system: Selaginella moellendorffii BioDA; experiment: as above; conditions: Selaginella moellendorcffii BioDAΔMTP
From the text: as §1, §2, §3, §4

[3] = test system: Schizosaccharomyces japonicus BioDA; experiment: as above
From the text: as §1, §2, §3, §4

Quercus robur BioDA = experiment: as above; conditions: Quercus robur BioDAΔMTP
From the text: as §1, §2, §3, §4

[4] = test system: Tenacibaculum adriaticum BioA; experiment: BioA enzyme activity with DMSO or herbicide in vitro; conditions: spermidine in substrate mix
From the text: as §1, §2
(§5) Protein of Escherichia coli BioA (SEQ ID NO:159), Pantoea ananatis BioA (SEQ ID NO:167), Streptomyces viridochromogenes BioA (SEQ ID NO:170), Cryptosporidium andersoni BioA (SEQ ID NO:160), Stenotrophomonas maltophilia BioA (SEQ ID NO:171), Chroococcidiopsis BioA (SEQ ID NO:184), Pedobacter hartonius BioA (SEQ ID NO:181), Chitinophaga filiformis BioA (SEQ ID NO:180), Tenacibaculum adriaticum BioA (SEQ ID NO:185) and Bacillus subtilis BioA (SEQ ID NO:166) was prepared using the method in Example 6. BioA enzyme activity in the presence of herbicide or DMSO in vitro for each of the proteins was assayed according to the enzyme assay method in Example 6, except in some reactions spermidine was replaced with 2 mM S-Adenosyl methionine.

[5] = test system: Pedobacter hartonius BioA; experiment: as above; conditions: spermidine in substrate mix
From the text: as §1, §2, §5

Bacillus subtilis BioA = experiment: as above; conditions: spermidine in substrate mix
From the text: as §1, §2, §5

[6] = test system: Stenotrophomonas maltophilia BioA; experiment: as above; conditions: spermidine in substrate mix
From the text: as §1, §2, §5

[7] = test system: Streptomyces viridochromogenes BioA; experiment: as above; conditions: SAM in substrate mix
From the text: as §1, §2, §5

Compound | % Inhibition relative to DMSO treatment (Ostreococcus tauri BioDA; 200 μM) | % Inhibition relative to DMSO treatment ([1]; 200 μM) | % Inhibition relative to DMSO treatment ([2]; 200 μM) | % Inhibition relative to DMSO treatment ([3]; 200 μM) | % Inhibition relative to DMSO treatment (Quercus robur BioDA; 200 μM) | % Inhibition relative to DMSO treatment ([4]; 200 μM) | % Inhibition relative to DMSO treatment ([5]; 200 μM) | % Inhibition relative to DMSO treatment (Bacillus subtilis BioA; 200 μM) | % Inhibition relative to DMSO treatment ([6]; 200 μM) | % Inhibition relative to DMSO treatment ([7]; 200 μM) | % Inhibition relative to DMSO treatment (Ostreococcus tauri BioDA; 0.5 μM) | % Inhibition relative to DMSO treatment ([1]; 0.5 μM) | % Inhibition relative to DMSO treatment ([2]; 0.5 μM) | % Inhibition relative to DMSO treatment ([3]; 0.5 μM) | % Inhibition relative to DMSO treatment (Quercus robur BioDA; 0.5 μM) | % Inhibition relative to DMSO treatment ([4]; 0.5 μM) | % Inhibition relative to DMSO treatment ([5]; 0.5 μM) | % Inhibition relative to DMSO treatment (Bacillus subtilis BioA; 0.5 μM) | % Inhibition relative to DMSO treatment ([6]; 0.5 μM) | % Inhibition relative to DMSO treatment ([7]; 0.5 μM) | other results
CC(O)C(N)CCCCC(=O)O.Cl (stereo not shown) [Compound B, [5-carboxy-1-(1-hydroxyethyl)pentyl]ammonium chloride] | 62% | 92% | 64% | 70% | 93% | 18% | 96% | 0% | 50% | 0% |  |  |  |  |  |  |  |  |  |  | 
CCn1c(Cn2ccc(C(F)(F)F)n2)cc(=O)c(C(=O)O)c1-c1ccc(Cl)c(Cl)c1 [Compound L, 2-(3,4-dichlorophenyl)-1-ethyl-4-oxo-6-[[3-(trifluoromethyl)pyrazol-1-yl]methyl]pyridine-3-carboxylic acid] |  |  |  |  |  |  |  |  |  |  | 5% | 6% | 9% | 0% | 83% | 16% | 2% | 0% | 0% | 0% | % Inhibition relative to DMSO treatment (Ostreococcus tauri BioDA; 31 μM): 83%; % Inhibition relative to DMSO treatment (Ostreococcus tauri BioDA; 500 μM): 98%; % Inhibition relative to DMSO treatment ([3]; 31 μM): 55%; % Inhibition relative to DMSO treatment ([3]; 500 μM): 94%; % Inhibition relative to DMSO treatment ([6]; 31 μM): 0%; % Inhibition relative to DMSO treatment ([6]; 500 μM): 16%; % Inhibition relative to DMSO treatment ([7]; 31 μM): 16%; % Inhibition relative to DMSO treatment ([7]; 500 μM): 34%
CCn1c(C)c(-c2cc(OC(F)(F)F)ccc2Cl)c(=O)c(C(=O)O)c1-c1ccc(Cl)c(Cl)c1 [Compound D, 5-[2-chloro-5-(trifluoromethoxy)phenyl]-2-(3,4-dichlorophenyl)-1-ethyl-6-methyl-4-oxo-pyridine-3-carboxylic acid] |  |  |  |  |  |  |  |  |  |  | 0% | 14% | 75% | 87% | 88% | 5% | 7% | 0% | 76% | 0% | % Inhibition relative to DMSO treatment (Ostreococcus tauri BioDA; 5 μM): 36%
C[C@@H](N)COc1cccc(C(=O)O)n1.Cl.Cl [Compound E, [(1R)-2-(6-carboxypyridin-1-ium-2-yl)oxy-1-methyl-ethyl]ammonium dichloride] | 53% | 66% | 69% | 28% | 96% | 16% | 80% | 0% | 74% | 0% |  |  |  |  |  |  |  |  |  |  | 
